Reference: PMC12307812 (Nature Communications, 2025)

Columns and labels:
[1] = target: T1, Recombinant Human TMPRSS2 (Homo sapiens, UniProt O15393); experiment: TMPRSS2 biochemical assay with pre-incubation of inhibitor and enzyme; conditions: for inhibition at 2.788 pM: concentration 0.00278767 nM; for inhibition at 8.363 pM: concentration 0.00836301 nM; for inhibition at 25.09 pM: concentration 0.025089 nM; for inhibition at 75.27 pM: concentration 0.0752671 nM; for inhibition at 0.000225801 µM: concentration 0.225801 nM; for inhibition at 0.000677404 µM: concentration 0.677404 nM; for inhibition at 0.00203221 µM: concentration 2.03221 nM; for inhibition at 0.00609663 µM: concentration 6.09663 nM; for inhibition at 0.0182899 µM: concentration 18.2899 nM; for inhibition at 0.0548697 µM: concentration 54.8697 nM; for inhibition at 0.164609 µM: concentration 164.609 nM; for inhibition at 0.493827 µM: concentration 493.827 nM; for inhibition at 1.48148 µM: concentration 1481.48 nM; for inhibition at 4.44444 µM: concentration 4444.44 nM; for inhibition at 13.3333 µM: concentration 13333.3 nM; for inhibition at 40 µM: concentration 40000 nM
T1 construct: human TMPRSS2 residues 106492, N-terminal 6x His-tag; 6x His-tag (N); purchased Cusabio CSB-YP023924HU; host or cells: yeast
T1 sequence (O15393 106-492 limits assumed): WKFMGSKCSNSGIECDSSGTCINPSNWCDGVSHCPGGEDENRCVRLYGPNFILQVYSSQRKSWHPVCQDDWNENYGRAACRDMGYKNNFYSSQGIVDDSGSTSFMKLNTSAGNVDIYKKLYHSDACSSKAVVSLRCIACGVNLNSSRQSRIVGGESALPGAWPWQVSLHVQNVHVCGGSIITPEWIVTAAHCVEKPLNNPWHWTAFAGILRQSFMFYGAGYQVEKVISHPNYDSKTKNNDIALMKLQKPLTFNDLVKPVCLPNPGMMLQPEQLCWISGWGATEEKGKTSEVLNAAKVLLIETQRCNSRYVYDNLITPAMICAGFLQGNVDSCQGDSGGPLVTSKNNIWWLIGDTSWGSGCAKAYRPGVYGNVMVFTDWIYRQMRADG
Description: To that was dispensed TMPRSS2 (5 µl, 0.018 mg/ml) in assay buffer (50 mM Tris pH 8, 150 mM NaCl, 0.01% Tween20) using a BioRAPTR (Beckman Coulter) to give a total reaction volume of 5 µl. […] The final assay conditions are 10 µM peptide, 0.018 mg/ml TMPRSS2 in assay buffer (50 mM Tris-HCl, pH 8, 150 mM NaCl, 0.01% Tween20).
After incubation at room temperature for 1 h, fluorescence was measured. […] Raw plate reads for each titration point were normalized relative to a positive control containing no enzyme (0% activity, full inhibition) and a negative control containing DMSO-only wells (100% activity, basal activity). Data normalization was performed using GraphPad Prism (GraphPad Software, San Diego, CA).
We employed the curve fitting algorithm available in the SciPy package (version 1.10.1)[61] to derive the Hill slope and the IC50 value, along with their corresponding error estimates.
To model the relationship between the pre-incubation time and the IC50, we use the following equation inspired by the Morse potential:3 ft,a,D,te=D⋅1−exp−a⋅t−te^2 where t is the time, a is the width of the well, D is the IC50 at infinite time (depth of the well) and te is the time at which the IC50 reaches its minimum. Again, we made use of SciPy’s curve fitting method to obtain parameters a, D and te, with their respective error estimates.

[2] = system: pseudovirus bearing S protein of HCoV-229E; experiment: organism not typed; format: cell-based
[3] = Calu-3, read-out: mean inhibition

`CN(C)C(=O)COC(=O)Cc1ccc(OC(=O)c2ccc(NC(=N)N)cc2)cc1` [camostat] showed an inhibition at 2.788 pM ([1]; pre-incubation 0) of -8.21%, an inhibition at 8.363 pM ([1]; pre-incubation 0) of -16.5% and an inhibition at 25.09 pM ([1]; pre-incubation 0) of -12.1%. For the same compound, the inhibition at 75.27 pM ([1]; pre-incubation 0) was 11.6%, the inhibition at 0.000225801 µM ([1]; pre-incubation 0) was 44.8% and the inhibition at 0.000677404 µM ([1]; pre-incubation 0) was 63.8%. The inhibition at 0.00203221 µM ([1]; pre-incubation 0) was 78.4%, the inhibition at 0.00609663 µM ([1]; pre-incubation 0) was 87.8% and the inhibition at 0.0182899 µM ([1]; pre-incubation 0) was 93.9%. The inhibition at 0.0548697 µM ([1]; pre-incubation 0) was 95.2%, the inhibition at 0.164609 µM ([1]; pre-incubation 0) was 94.9% and the inhibition at 0.493827 µM ([1]; pre-incubation 0) was 96.5%. For the same compound, the inhibition at 1.48148 µM ([1]; pre-incubation 0) was 97.9%, the inhibition at 4.44444 µM ([1]; pre-incubation 0) was 97.2% and the inhibition at 13.3333 µM ([1]; pre-incubation 0) was 98.7%. For the same compound, the inhibition at 40 µM ([1]; pre-incubation 0) was 98.9%, the inhibition at 2.788 pM ([1]; pre-incubation 1) was 6.01% and the inhibition at 8.363 pM ([1]; pre-incubation 1) was 2.49%. For the same compound, the inhibition at 25.09 pM ([1]; pre-incubation 1) was 10%, the inhibition at 75.27 pM ([1]; pre-incubation 1) was 58.4% and the inhibition at 0.000225801 µM ([1]; pre-incubation 1) was 90.2%. For the same compound, the inhibition at 0.000677404 µM ([1]; pre-incubation 1) was 93.6%, the inhibition at 0.00203221 µM ([1]; pre-incubation 1) was 94.9% and the inhibition at 0.00609663 µM ([1]; pre-incubation 1) was 95.1%. It also gave an inhibition at 0.0182899 µM ([1]; pre-incubation 1) of 94.9%, an inhibition at 0.0548697 µM ([1]; pre-incubation 1) of 96.1% and an inhibition at 0.164609 µM ([1]; pre-incubation 1) of 96%. The inhibition at 0.493827 µM ([1]; pre-incubation 1) was 95.8%, the inhibition at 1.48148 µM ([1]; pre-incubation 1) was 97.1% and the inhibition at 4.44444 µM ([1]; pre-incubation 1) was 97.4%. The inhibition at 13.3333 µM ([1]; pre-incubation 1) was 98.2%, the inhibition at 40 µM ([1]; pre-incubation 1) was 99.4% and the inhibition at 2.788 pM ([1]; pre-incubation 4) was 8.38%. For the same compound, the inhibition at 8.363 pM ([1]; pre-incubation 4) was 5.55%, the inhibition at 25.09 pM ([1]; pre-incubation 4) was 35.8% and the inhibition at 75.27 pM ([1]; pre-incubation 4) was 91%. For the same compound, the inhibition at 0.000225801 µM ([1]; pre-incubation 4) was 96.5%, the inhibition at 0.000677404 µM ([1]; pre-incubation 4) was 97.6% and the inhibition at 0.00203221 µM ([1]; pre-incubation 4) was 97.9%. For the same compound, the inhibition at 0.00609663 µM ([1]; pre-incubation 4) was 98.2%, the inhibition at 0.0182899 µM ([1]; pre-incubation 4) was 98% and the inhibition at 0.0548697 µM ([1]; pre-incubation 4) was 98.6%. The inhibition at 0.164609 µM ([1]; pre-incubation 4) was 98.2%, the inhibition at 0.493827 µM ([1]; pre-incubation 4) was 99.2% and the inhibition at 1.48148 µM ([1]; pre-incubation 4) was 99.4%. The inhibition at 4.44444 µM ([1]; pre-incubation 4) was 100%, the inhibition at 13.3333 µM ([1]; pre-incubation 4) was 101% and the inhibition at 40 µM ([1]; pre-incubation 4) was 102%. For the same compound, the inhibition at 2.788 pM ([1]; pre-incubation 8) was 20.8%, the inhibition at 8.363 pM ([1]; pre-incubation 8) was 10.7% and the inhibition at 25.09 pM ([1]; pre-incubation 8) was 61.7%. For the same compound, the inhibition at 75.27 pM ([1]; pre-incubation 8) was 104%, the inhibition at 0.000225801 µM ([1]; pre-incubation 8) was 108% and the inhibition at 0.000677404 µM ([1]; pre-incubation 8) was 110%. For the same compound, the inhibition at 0.00203221 µM ([1]; pre-incubation 8) was 111%, the inhibition at 0.00609663 µM ([1]; pre-incubation 8) was 112% and the inhibition at 0.0182899 µM ([1]; pre-incubation 8) was 111%. It also gave an inhibition at 0.0548697 µM ([1]; pre-incubation 8) of 112%, an inhibition at 0.164609 µM ([1]; pre-incubation 8) of 113% and an inhibition at 0.493827 µM ([1]; pre-incubation 8) of 113%. It also gave an inhibition at 1.48148 µM ([1]; pre-incubation 8) of 114%, an inhibition at 4.44444 µM ([1]; pre-incubation 8) of 115% and an inhibition at 13.3333 µM ([1]; pre-incubation 8) of 114%. The inhibition at 40 µM ([1]; pre-incubation 8) was 115%, the inhibition at 2.788 pM ([1]; pre-incubation 18) was 24.4% and the inhibition at 8.363 pM ([1]; pre-incubation 18) was 17.1%. For the same compound, the inhibition at 25.09 pM ([1]; pre-incubation 18) was 57.1%, the inhibition at 75.27 pM ([1]; pre-incubation 18) was 86.7% and the inhibition at 0.000225801 µM ([1]; pre-incubation 18) was 91.7%. For the same compound, the inhibition at 0.000677404 µM ([1]; pre-incubation 18) was 94.1%, the inhibition at 0.00203221 µM ([1]; pre-incubation 18) was 95.7% and the inhibition at 0.00609663 µM ([1]; pre-incubation 18) was 98.6%. For the same compound, the inhibition at 0.0182899 µM ([1]; pre-incubation 18) was 99.3%, the inhibition at 0.0548697 µM ([1]; pre-incubation 18) was 99.9% and the inhibition at 0.164609 µM ([1]; pre-incubation 18) was 101%. For the same compound, the inhibition at 0.493827 µM ([1]; pre-incubation 18) was 102%, the inhibition at 1.48148 µM ([1]; pre-incubation 18) was 102% and the inhibition at 4.44444 µM ([1]; pre-incubation 18) was 103%. The inhibition at 13.3333 µM ([1]; pre-incubation 18) was 103%, the inhibition at 40 µM ([1]; pre-incubation 18) was 104% and the inhibition at 2.788 pM ([1]; pre-incubation 24) was 38.3%. It also gave an inhibition at 8.363 pM ([1]; pre-incubation 24) of 38.8%, an inhibition at 25.09 pM ([1]; pre-incubation 24) of 73.1% and an inhibition at 75.27 pM ([1]; pre-incubation 24) of 100%. It also gave an inhibition at 0.000225801 µM ([1]; pre-incubation 24) of 105%, an inhibition at 0.000677404 µM ([1]; pre-incubation 24) of 107% and an inhibition at 0.00203221 µM ([1]; pre-incubation 24) of 107%. The inhibition at 0.00609663 µM ([1]; pre-incubation 24) was 108%, the inhibition at 0.0182899 µM ([1]; pre-incubation 24) was 110% and the inhibition at 0.0548697 µM ([1]; pre-incubation 24) was 110%. For the same compound, the inhibition at 0.164609 µM ([1]; pre-incubation 24) was 111%, the inhibition at 0.493827 µM ([1]; pre-incubation 24) was 111% and the inhibition at 1.48148 µM ([1]; pre-incubation 24) was 112%. It also gave an inhibition at 4.44444 µM ([1]; pre-incubation 24) of 112%, an inhibition at 13.3333 µM ([1]; pre-incubation 24) of 112% and an inhibition at 40 µM ([1]; pre-incubation 24) of 113%. The inhibition at 2.788 pM ([1]; pre-incubation 48) was 4.55%, the inhibition at 8.363 pM ([1]; pre-incubation 48) was -1.82% and the inhibition at 25.09 pM ([1]; pre-incubation 48) was 28.4%. The inhibition at 75.27 pM ([1]; pre-incubation 48) was 71.5%, the inhibition at 0.000225801 µM ([1]; pre-incubation 48) was 83.3% and the inhibition at 0.000677404 µM ([1]; pre-incubation 48) was 86.8%. For the same compound, the inhibition at 0.00203221 µM ([1]; pre-incubation 48) was 88.2%, the inhibition at 0.00609663 µM ([1]; pre-incubation 48) was 89.9% and the inhibition at 0.0182899 µM ([1]; pre-incubation 48) was 90.6%. It also gave an inhibition at 0.0548697 µM ([1]; pre-incubation 48) of 91.9%, an inhibition at 0.164609 µM ([1]; pre-incubation 48) of 92.7% and an inhibition at 0.493827 µM ([1]; pre-incubation 48) of 94.2%. The inhibition at 1.48148 µM ([1]; pre-incubation 48) was 95.1%, the inhibition at 4.44444 µM ([1]; pre-incubation 48) was 97% and the inhibition at 13.3333 µM ([1]; pre-incubation 48) was 100%. For the same compound, the inhibition at 40 µM ([1]; pre-incubation 48) was 107%, the IC50 ([2]; Calu-3, read-out: IC50 estimate, pseudovirus cell entry 229E-S) was 2.01 ± 0.177 µM and the inhibition at 0.00025 µM [2, 3] was 1.18%. For the same compound, the inhibition at 0.0025 µM [2, 3] was 7.64%, the inhibition at 0.025 µM [2, 3] was 11.6% and the inhibition at 0.25 µM [2, 3] was 30.5%. The inhibition at 2.5 µM [2, 3] was 52.3% and the inhibition at 25 µM [2, 3] was 73.8%.
